How the values were obtained:
[1] = Stability in pancreatic digestive enzyme mix; assay type: in vitro ADME; details: 50 mM phosphate buffer pH 6.8, peptide 30 mM, 20:1 peptide to pancreatic mixture, 37°C, reverse-phase HPLC, AUC 0–2 h as % remaining vs stable control ± SEM, n = 3 (exenatide, [Leu^14]exenatide-ABP n = 2)
Procedure: Stability of peptides was also assessed in a mixture of amylase, lipase and protease (pancreatin, Cat.# P7545-25 g, Sigma-Aldrich, St. Louis, MO), which are digestive enzymes produced by pancreatic exocrine cells. Peptides (30 mM) in 50 mM phosphate buffer (pH 6.8) and citrate buffers (pH 4 & pH 5) were incubated for 2 hours in pancreatic mixture at 37°C (20∶1 ratio of peptide to pancreatic mixture) (n = 3). The enzymatic reaction was stopped with the addition of 0.2 N HCl (final concentration of peptide 10 mM) at each time point.

rat GLP-1 receptor = biological target: T1, rat GLP-1 receptor (Rattus norvegicus, UniProt P32301); assay: GLP-1 receptor functional assay (cAMP); assay type: cell-based; details: 6–23 clone 6 cells, HBSS 0.1% BSA, 250 µM IBMX, 30 minutes, quadruplicates
T1 construct: 6–23 clone 6 cells endogenously expressing the rat GLP-1 receptor; endogenous in cells; host or cells: 6-23 clone 6 cells
T1 sequence (P32301 22-463): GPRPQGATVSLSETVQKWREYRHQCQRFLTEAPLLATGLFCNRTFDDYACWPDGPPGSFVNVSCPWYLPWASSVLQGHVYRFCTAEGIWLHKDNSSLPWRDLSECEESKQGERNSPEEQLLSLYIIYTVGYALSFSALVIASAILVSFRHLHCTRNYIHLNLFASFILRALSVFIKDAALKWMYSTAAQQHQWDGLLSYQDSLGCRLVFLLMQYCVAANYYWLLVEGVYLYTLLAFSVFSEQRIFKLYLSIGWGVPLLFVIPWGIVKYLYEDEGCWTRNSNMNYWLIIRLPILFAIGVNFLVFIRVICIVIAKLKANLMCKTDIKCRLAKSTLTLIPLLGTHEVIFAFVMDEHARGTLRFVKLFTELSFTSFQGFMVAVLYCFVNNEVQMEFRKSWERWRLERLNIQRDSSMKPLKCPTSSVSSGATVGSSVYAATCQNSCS
Procedure: Following 30 minutes incubation, the cAMP was measured using the cAMP Dynamic 2 assay (Cisbio US, Bedford, MA) as per the manufacturer’s instructions. cAMP was detected by a decrease in time-resolved fluorescence energy transfer using a GeniousPro plate reader (Tecan US, San Jose, CA).
Results are presented as means ± SEM, graphed and analyzed using GraphPad Prism 5®. The potency of peptides in the in vitro functional assay and in an OGTT was determined by the analysis of concentration-response curves using non-linear regression analysis.

CC[C@H](C)[C@H](NC(=O)[C@H](Cc1c[nH]cn1)NC(=O)[C@H](CC(C)C)NC(=O)[C@H](CCCCN)NC(=O)[C@H](CC(C)C)NC(=O)[C@H](C)NC(=O)[C@H](CCC(=O)O)NC(=O)[C@@H](NC(=O)CNC(=O)[C@H](CCC(=O)O)NC(=O)[C@@H](NC(=O)[C@@H](NC(=O)[C@H](CCCCN)NC(=O)[C@H](C)NC(=O)[C@H](CCCCN)NC(=O)[C@H](CC(N)=O)NC(=O)[C@@H](NC(=O)[C@H](CC(C)C)NC(=O)[C@H](CCCNC(=N)N)NC(=O)[C@H](CCCCN)NC(=O)[C@H](Cc1ccc(O)cc1)NC(=O)[C@H](Cc1ccccc1)NC(=O)[C@H](CC(=O)O)NC(=O)[C@H](CO)NC(=O)[C@@H](NC(=O)CNC(=O)[C@H](Cc1ccc(O)cc1)NC(=O)[C@H](CCCCN)NC(=O)[C@H](CC(=O)O)NC(=O)[C@H](CC(C)C)NC(=O)[C@H](CCC(=O)O)NC(=O)[C@H](CCCNC(=N)N)NC(=O)[C@H](CC(N)=O)NC(=O)[C@H](C)NC(=O)[C@H](CC(C)C)NC(=O)[C@@H](NC(=O)[C@H](CCCCN)NC(=O)[C@H](C)NC(=O)[C@H](CCC(=O)O)NC(=O)[C@H](C)NC(=O)[C@@H](N)CC(C)C)C(C)C)C(C)C)[C@@H](C)CC)[C@@H](C)O)C(C)C)C(C)C)C(=O)N[C@@H](CC(C)C)C(=O)N[C@@H](C)C(=O)N[C@@H](C)C(=O)N[C@@H](CC(C)C)C(=O)N1CCC[C@H]1C(=O)O [ABD035]
2 h Stability in Pancreatin Mix (%) pH 6.8 [1]: 10±2% | GLP-1 Receptor Functional Assay EC50 (rat GLP-1 receptor): not active

Source: paper PMC3913652 (PLoS ONE, 2014)
